The target of test [1] is T1, bovine TrxR (Bos taurus, UniProt O62768).
T1 construct: purchased American Diagnostica
T1 sequence (O62768 1-499): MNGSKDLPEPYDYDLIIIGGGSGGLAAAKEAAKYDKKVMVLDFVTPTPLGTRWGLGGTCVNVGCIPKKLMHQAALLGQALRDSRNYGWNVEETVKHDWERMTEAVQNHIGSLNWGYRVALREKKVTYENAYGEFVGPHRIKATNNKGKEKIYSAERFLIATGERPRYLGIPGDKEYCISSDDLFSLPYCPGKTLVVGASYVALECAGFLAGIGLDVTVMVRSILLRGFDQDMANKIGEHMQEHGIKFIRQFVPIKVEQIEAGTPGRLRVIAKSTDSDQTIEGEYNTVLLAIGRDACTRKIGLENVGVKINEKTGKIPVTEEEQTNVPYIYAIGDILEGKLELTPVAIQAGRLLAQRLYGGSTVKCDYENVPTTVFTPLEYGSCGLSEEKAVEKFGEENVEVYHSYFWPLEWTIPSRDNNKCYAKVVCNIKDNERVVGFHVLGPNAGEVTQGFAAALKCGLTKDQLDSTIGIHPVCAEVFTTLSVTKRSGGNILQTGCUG
Description: TrxR NADPH oxidation assay without Trx (Reaction A). The test is classed as biochemical.

The target in test [2] is T2, Peroxiredoxin (Prx) (Homo sapiens, UniProt Q06830).
T2 construct: purchased SigmaAldrich
T2 sequence (Q06830 whole entry): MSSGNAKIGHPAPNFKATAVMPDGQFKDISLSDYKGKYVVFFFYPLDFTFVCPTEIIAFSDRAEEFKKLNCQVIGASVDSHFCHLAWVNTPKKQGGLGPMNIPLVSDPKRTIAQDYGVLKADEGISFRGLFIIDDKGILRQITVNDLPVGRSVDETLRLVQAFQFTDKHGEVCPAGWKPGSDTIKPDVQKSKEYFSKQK
Description: Peroxiredoxin activity (summary Table 27). It is filed as biochemical.

The test system of test [3] is bovine brain microtubule protein (α-/β-tubulin). Description: Electron microscopy of microtubule polymerization reactions. The test is classed as biochemical. The conditions noted are these: presence and absence of paclitaxel. The protocol:
(1 mM/1 mM/6 μM (v/v/v)). Electron micrograph samples were prepared by gently mixing samples of reactions with an equal volume of 50% sucrose in buffer P (0.1 M PIPES, 1 mM EGTA, pH 6.5) and mounting on carbon-coated grids (400 mesh formvar/carbon, Electron Microscopy Sciences). Grids were washed with cytochrome c (1%) and water and stained with uranyl acetate (1%). Electron microscopy was performed using a Philips 208S electron microscope (Philips Instruments) at an accelerating voltage of 60 kV. Micrographs were taken at 36,000× and 7,000× magnifications.

The target of test [4] is RNR subunit 1 (Homo sapiens, UniProt P23921). Description: Whole protein Mass Spectroscopy of RNR1. It is filed as binding. The text has this:
RNR1 contains a total of sixteen (16) cysteine residues and at least five (5) of these cysteine residues are required for catalysis, including: Cys218, Cys429, Cys444, Cys787, and Cys790. It is hypothesized that the Tavocept-derived mesna adducts identified on the RNR1 protein using whole protein Mass Spectroscopy (see, FIG. 49) may alter or modulate RNR activity.

Test [5] concerns the target T3, human glutaredoxin (Grx1) (Homo sapiens, UniProt P35754).
T3 construct: 6xHis (TEV-cleavable) (N, cleaved yes); made in house; host or cells: E. coli BL21 (RIPL)
Description: X-ray crystallography of Tavocept-derived mesna adduct on Grx. The conditions noted are these: Tavocept 40 mM, 4° C. overnight. The test is classed as binding. From the text: Diffraction data were collected at the Advanced Light Source (ALS) (Berkeley, Calif.). […] Data was processed using the program package MosFlm as part of the ccp4 program package.
Data was indexed, integrated, scaled and merged using the program Mosflm. […] The solution was consistent with one molecule in the crystal asymmetric unit. […] The structure solution is supported by contiguous electron density for the entire chain trace of each molecule, landmark side chain density features matching the amino acid sequence including cysteines, absence of phi-psi violations and final R/Rfree values in the normal range. […] Residues Gln39 and Glu55 have missing side-chain atoms in the final structures (side chain atoms CD, CG, OE1, NE2 and CD, OE1, OE2, respectively).

Here are results for one compound from US20170007561A1, “CONTEMPORANEOUS, HETEROGENEOUSLY-ORIENTED, MULTI-TARGETED THERAPEUTIC MODIFICATION AND/OR MODULATION OF DISEASE BY ADMINISTRATION OF SULFUR-CONTAINING, AMINO ACID-SPECIFIC SMALL MOLECULES” (BioNumerik Pharmaceuticals, Inc., priority 2014, published 2017).

Structures are written as SMILES. Where only a bound is given, the exact number is not on record here.

RNR subunit 1, sequence (P23921 whole entry): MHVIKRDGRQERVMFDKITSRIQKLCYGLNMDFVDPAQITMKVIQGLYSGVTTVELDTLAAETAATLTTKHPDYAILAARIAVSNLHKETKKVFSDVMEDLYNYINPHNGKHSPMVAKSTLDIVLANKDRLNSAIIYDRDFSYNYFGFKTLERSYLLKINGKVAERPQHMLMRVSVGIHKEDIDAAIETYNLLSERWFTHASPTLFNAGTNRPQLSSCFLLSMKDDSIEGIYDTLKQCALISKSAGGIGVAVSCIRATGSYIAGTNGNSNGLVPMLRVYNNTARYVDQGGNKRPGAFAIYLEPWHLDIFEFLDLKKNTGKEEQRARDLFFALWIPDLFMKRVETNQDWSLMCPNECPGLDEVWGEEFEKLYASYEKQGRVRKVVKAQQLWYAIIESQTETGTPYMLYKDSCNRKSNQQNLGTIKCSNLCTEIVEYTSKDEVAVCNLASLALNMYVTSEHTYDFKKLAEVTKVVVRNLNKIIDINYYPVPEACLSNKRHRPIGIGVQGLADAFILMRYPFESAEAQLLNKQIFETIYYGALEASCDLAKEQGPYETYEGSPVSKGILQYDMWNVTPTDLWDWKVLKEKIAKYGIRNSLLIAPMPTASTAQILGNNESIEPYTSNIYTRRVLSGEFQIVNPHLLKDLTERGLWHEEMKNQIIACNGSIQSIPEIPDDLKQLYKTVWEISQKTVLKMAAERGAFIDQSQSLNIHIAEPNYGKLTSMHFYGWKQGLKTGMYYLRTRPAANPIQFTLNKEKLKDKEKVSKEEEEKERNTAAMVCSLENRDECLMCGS
T3 sequence (P35754 whole entry): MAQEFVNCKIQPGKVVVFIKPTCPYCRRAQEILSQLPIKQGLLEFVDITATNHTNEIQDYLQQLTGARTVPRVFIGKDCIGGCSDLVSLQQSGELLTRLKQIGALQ

Turning to `O=S(=O)([O-])CCSSCCS(=O)(=O)[O-].[Na+].[Na+]` [Tavocept, disodium 2,2′-dithio-bis-ethane sulfonate], the “Reduction by TrxR alone” value in test [1] (Reaction A) was “did not detectably reduce”. Moreover, in test [1] (TrxR alone + NADPH, no Trx, disulfide 0.5 mM), the “NADPH Oxidation, Reaction A” value was 0.3 ± 0.01 nmol/min/mL. The “Cellular consequence of BNP7787-modification and/or modulation: Prx” value in test [2] is on record as “BNP7787 disrupts active site structure (Prx) resulting in impaired”. Also, in test [3] (Tavocept preincubated 20 minutes, qualitative), the “abundance of microtubules on EM grids” value is “reduction in the abundance of microtubules”. Moreover, the microtubule morphology entry in test [3] (Tavocept) was “no effects on overall gross microtubule morphology”. The “number of Tavocept-derived mesna adducts on cysteine residues within RNR1” value in test [4] is listed as at most 8. In addition, the “Mesna adduct sites on Grx by X-ray” value in test [5] is “Cys7 and Cys82”.
